The source of these data is article PMC8237609 (Molecular Metabolism, 2021).

This experiment addresses human recombinant LANCL1 (hLANCL1) (Homo sapiens, UniProt O43813). In words: [3H]ABA equilibrium saturation binding, nitrocellulose filtration.

Chain of human recombinant LANCL1 (hLANCL1) (O43813 whole entry): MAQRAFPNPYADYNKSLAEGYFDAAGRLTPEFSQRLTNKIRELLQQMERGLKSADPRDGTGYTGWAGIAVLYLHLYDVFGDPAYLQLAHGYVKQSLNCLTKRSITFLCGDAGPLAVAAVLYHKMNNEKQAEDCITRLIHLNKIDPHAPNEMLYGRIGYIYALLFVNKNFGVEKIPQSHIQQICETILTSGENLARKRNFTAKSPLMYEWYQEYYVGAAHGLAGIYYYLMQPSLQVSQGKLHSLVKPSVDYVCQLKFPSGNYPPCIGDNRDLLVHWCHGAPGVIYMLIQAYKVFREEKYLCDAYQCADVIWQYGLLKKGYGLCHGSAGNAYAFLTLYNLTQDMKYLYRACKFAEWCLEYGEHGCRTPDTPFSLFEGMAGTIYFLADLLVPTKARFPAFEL

Take `CC1=CC(=O)CC(C)(C)C1(O)/C=C/C(C)=C\C(=O)O` (racemic) [ABA, (±)-ABA]: the Kd (as a rule, a measure of binding affinity in units of concentration) was 1 ± 0.4 µM.
